# Results: patent US10023518B2, “Substituted aromatic compounds and related method for the treatment of fibrosis” (PROMETIC BIOSCIENCES INC., priority 2013, dated 2018)
# How the values were obtained:
# [1] = test system: α-SMA mRNA expression in TGF-β induced NRK-49F cells; assay: Inhibition of α-SMA mRNA expression in TGF-β induced NRK-49F cells (quantitative real-time PCR); format: cell-based, rat; conditions: TGF-β 10 ng/ml
# Description: In fibroblast, analysis was undertaken to determine the effect of preferred compounds of the present invention on TGF-β-induced α-SMA (marker of fibrosis) mRNA expression on normal rat kidney fibroblast (NRK-49F). NRK-49F were treated with TGF-β at a concentration of 10 ng/ml and became activated (myofibroblast) and expressed α-SMA. Expression of the profibrotic marker α-SMA was determined by quantitative real-time PCR.
# [2] = test system: collagen 1 mRNA expression in TGF-β induced HK-2 cells; assay: Inhibition of collagen 1 mRNA expression in TGF-β induced HK-2 epithelial cells (quantitative real-time PCR); format: cell-based, human; conditions: TGF-β 10 ng/mL; for expression of collagen in TGF-β-induced HK-2 cells (in words): concentration not given
# Description: In epithelial cells, analysis was undertaken to determine the effect of compounds of the invention on TGF-β-induced collagen 1 (marker of fibrosis) on human proximal tubule epithelial cells (HK-2). HK-2 cells are immortalized proximal tubule epithelial cells, from human kidney, which were treated with TGF-β at a concentration of 10 ng/mL Expression of the profibrotic marker collagen 1 was determined by quantitative real-time PCR.
# db/db diabetic mouse = assay: Glomerular filtration rate in nephrectomised db/db diabetic mouse model of renal fibrosis; format: in vivo; conditions: db/db mice, right nephrectomy day 0, GFR on day 119
# Description: FIG. 1 illustrates the glomerular filtration rate (GFR) function in db/db diabetic mouse compared to C57BL/6 mice (control mice), and in db/db diabetic mouse following oral treatment with Compound 1 at a dose of 10 and 50 mg/kg.
# Typical experimental models of kidney fibrosis in mice or rats include db/db nephritic mice (models for diabetic nephropathy) and reflects the nephropathy observed in human. Evaluation of the effect of Compound 1 on diabetic nephropathy was performed in a db/db mouse model. Briefly, total nephrectomy of the right kidney was performed on day 0 and db/db mice (6-week old) were treated with vehicle or Compound 1 (10 and 50 mg/kg, oral once a day) from day 1 and glomerular filtration rate (GFR) was measured on day 119 as a direct measure of kidney function. FIG. 1 illustrates the reduction of GFR in db/db diabetic mouse compared to C57BL/6 mice (control mice), showing clearly the nephropathy associated with diabetes.
compound,measurement,setting,value
"CCCCCCc1cc(CCCCCC)cc(CC(=O)[O-])c1.[Na+] [Compound 2, Sodium Salt of 2-(3,5-Dihexylphenyl)acetic acid]",α-SMA expression in NRK-49F % of inhibition [mM],[1]; 0.006 mM compound,89% [0.006]
same,Collagen expression in HK-2 cells % of inhibition [mM],[2]; 0.008 mM compound,100% [0.008]
same,expression of collagen in TGF-β-induced HK-2 cells (in words),[2],inhibits the expression of collagen
"CCCCCc1cc(CCCCC)cc(CC(=O)[O-])c1.[Na+] [Compound 1, Sodium 2-[3,5-Dipentylphenyl]acetate]",α-SMA expression in NRK-49F % of inhibition [mM],[1]; 0.01 mM compound,94% [0.01]
same,Collagen expression in HK-2 cells % of inhibition [mM],[2]; 0.02 mM compound,100% [0.02]
same,expression of collagen in TGF-β-induced HK-2 cells (in words),[2],inhibits the expression of collagen
same,glomerular filtration rate (GFR),db/db diabetic mouse; 10 mg/kg oral once a day from day 1,increases the GFR function of the kidney up to normal
same,glomerular filtration rate (GFR),db/db diabetic mouse; 50 mg/kg oral once a day from day 1,increases the GFR function of the kidney up to normal
same,melting point,,225 to 230 °C
"CCCCCc1cc(CC(=O)[O-])cc(CCCCC)c1O.[Na+] [Compound 5, Sodium Salt of 2-(4-Hydroxy-3,5-dipentylphenyl)acetic acid]",α-SMA expression in NRK-49F % of inhibition [mM],[1]; 0.025 mM compound,41% [0.025]
"CCCCCc1cc(CCCCC)c(O)c(CC(=O)[O-])c1.[Na+] [Compound 3, Sodium Salt of 2-(2-Hydroxy-3,5-dipentylphenyl)acetic acid]",α-SMA expression in NRK-49F % of inhibition [mM],[1]; 0.0125 mM compound,100% [0.0125]
